Bounds are passed on as bounds.

T1 sequence (P31153 whole entry): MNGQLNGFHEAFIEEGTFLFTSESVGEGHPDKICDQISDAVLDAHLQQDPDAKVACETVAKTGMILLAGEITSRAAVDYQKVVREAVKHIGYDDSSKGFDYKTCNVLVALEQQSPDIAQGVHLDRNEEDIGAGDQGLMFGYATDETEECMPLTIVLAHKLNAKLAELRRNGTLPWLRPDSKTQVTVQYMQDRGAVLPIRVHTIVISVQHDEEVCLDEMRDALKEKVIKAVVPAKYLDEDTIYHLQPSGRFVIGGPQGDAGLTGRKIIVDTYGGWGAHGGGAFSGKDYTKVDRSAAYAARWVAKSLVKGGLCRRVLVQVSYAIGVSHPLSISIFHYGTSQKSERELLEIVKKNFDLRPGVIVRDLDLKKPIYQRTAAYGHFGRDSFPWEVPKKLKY

This assay has as its target T1, MAT2A (Homo sapiens, UniProt P31153).
T1 construct: His6; made in house; host or cells: SF9 insect cells
The assay can be described thus: MAT2A biochemical assay (colorimetric inorganic phosphate detection, PiColorLock). To be noted: recombinant His6-tagged MAT2A 1 μg/ml; 60 minutes preincubation at 25° C.; L-Met 80 μM, ATP 100 μM; 60 minutes reaction; read at 623 nm; read-out: MAT2A Inhibition Score. Here is the method:
In the reaction catalyzed by MAT2A enzyme, L-Met and ATP were converted to SAM, inorganic phosphate, and inorganic diphosphate. […] The concentration of malachite green phosphomolybdate produced in the detection reaction is thus directly related to the quantity of product produced by the MAT2A enzyme. Multiple commercial kits exist for this method of phosphate detection and quantification, such as PiColorLock Gold (Innova Biosciences). Typical reaction was performed in 50 μl final volume, containing buffer (Tris, pH 8.0, 50 mM KCl, 15 mM MgCl2, 300 uM EDTA, bovine serum albumin at 0.005% w/v) and 1 μg/ml MAT2A. Compounds were added in 1 μl of DMSO at the desired concentration; a typical dose response curve contained ten points with three-fold dilution between compound concentrations. […] The reaction was allowed to proceed for 60 minutes at room temperature then halted by the addition of 13 μl of PiColor Lock reagent. After a further 5 minutes of incubation at room temperature, […] of PiColor Stabilizer was added and the reactions were further incubated at 25° C. for 25 minutes. […] Recombinant MAT2A protein was expressed in SF9 insect cells and purified by metal chelate affinity chromatography, using methods well known in the art. After expression of His6-tagged MAT2A cells were disrupted by 4 passes through an M-Yl 10 Micro fluidizer (Microfluidics) set to 500 psi, and then centrifuged at 22,000 rcf for 20 min at 4° C. The supernatant was harvested and loaded at 15 cm/h on a Histrap FF 5*1 ml column (GE) which was equilibrated with 50 mM Tris, 500 mM NaCl, pH7.4. Host cell contaminants were removed by washing the column with equilibration buffer followed by equilibration buffer containing 20 mM imidazole and 60 mM imidazole to baseline. MAT2A protein was eluted by the addition of buffer containing 250 mM imidazole, dialized into 50 mM NaCl, 50 mM Tris, pH 7.4, flash frozen in liquid nitrogen, and stored at −80° C. until use.
Consider `COc1ccc(-c2c(Nc3ccc(OC)nn3)[nH]c3c(-c4ccccc4)c(-c4ccccc4)nn3c2=O)cc1` [Compound 124, 6-(4-methoxyphenyl)-5-((6-methoxypyridazin-3-yl)amino)-2,3-diphenylpyrazolo[1,5-a]pyrimidin-7(4H)-one], for which the IC50 is below 100 nM. On to `COc1ccc(-c2c(Nc3ccc(Cl)nn3)[nH]c3c(-c4ccccc4)c(-c4ccccc4)nn3c2=O)cc1` [Compound 125, 5-((6-chloropyridazin-3-yl)amino)-6-(4-methoxyphenyl)-2,3-diphenylpyrazolo[1,5-a]pyrimidin-7(4H)-one], for which the IC50 was below 100 nM. Take `COc1ccc(-c2c(Nc3cnccn3)[nH]c3c(-c4ccccc4)c(-c4ccccc4)nn3c2=O)cc1` [Compound 126, 6-(4-methoxyphenyl)-2,3-diphenyl-5-(pyrazin-2-ylamino)pyrazolo[1,5-a]pyrimidin-7(4H)-one]: the IC50 was below 100 nM. As to `COc1ccc(-c2c(Nc3nccnc3O)[nH]c3c(-c4ccccc4)c(-c4ccccc4)nn3c2=O)cc1` [Compound 127, 5-((3-hydroxypyrazin-2-yl)amino)-6-(4-methoxyphenyl)-2,3-diphenylpyrazolo[1,5-a]pyrimidin-7(4H)-one], the IC50 was below 100 nM. In the case of `COc1ccc(-c2c(Nc3nccnc3N)[nH]c3c(-c4ccccc4)c(-c4ccccc4)nn3c2=O)cc1` [Compound 128, 5-((3-aminopyrazin-2-yl)amino)-6-(4-methoxyphenyl)-2,3-diphenylpyrazolo[1,5-a]pyrimidin-7(4H)-one] it was below 100 nM. As for `COc1ccc(-c2c(Nc3cnc(C#N)cn3)[nH]c3c(-c4ccccc4)c(-c4ccccc4)nn3c2=O)cc1` [Compound 129, 5-(6-(4-methoxyphenyl)-7-oxo-2,3-diphenyl-4,7-dihydropyrazolo[1,5-a]pyrimidin-5-ylamino)pyrazine-2-carbonitrile], the IC50 was below 100 nM. In the case of `COc1ccc(-c2c(Nc3cnc(N)cn3)[nH]c3c(-c4ccccc4)c(-c4ccccc4)nn3c2=O)cc1` [Compound 130, 5-((5-aminopyrazin-2-yl)amino)-6-(4-methoxyphenyl)-2,3-diphenylpyrazolo[1,5-a]pyrimidin-7(4H)-one] it was below 100 nM; in that of `COc1ccc(-c2c(Nc3cncc(C#N)n3)[nH]c3c(-c4ccccc4)c(-c4ccccc4)nn3c2=O)cc1` [Compound 131, 6-(6-(4-methoxyphenyl)-7-oxo-2,3-diphenyl-4,7-dihydropyrazolo[1,5-a]pyrimidin-5-ylamino)pyrazine-2-carbonitrile], below 100 nM; in that of `COc1ccc(-c2c(Nc3ncncn3)[nH]c3c(-c4ccccc4)c(-c4ccccc4)nn3c2=O)cc1` [Compound 132, 5-((1,3,5-triazin-2-yl)amino)-6-(4-methoxyphenyl)-2,3-diphenylpyrazolo[1,5-a]pyrimidin-7(4H)-one], below 100 nM.

`COc1ccc(-c2c(Nc3cnncn3)[nH]c3c(-c4ccccc4)c(-c4ccccc4)nn3c2=O)cc1` [Compound 133, 5-((1,2,4-triazin-5-yl)amino)-6-(4-methoxyphenyl)-2,3-diphenylpyrazolo[1,5-a]pyrimidin-7(4H)-one]: the IC50 was below 100 nM. Regarding `COc1ccc(-c2c(Nc3ncnc(N)n3)[nH]c3c(-c4ccccc4)c(-c4ccccc4)nn3c2=O)cc1` [Compound 134, 5-((4-amino-1,3,5-triazin-2-yl)amino)-6-(4-methoxyphenyl)-2,3-diphenylpyrazolo[1,5-a]pyrimidin-7(4H)-one], the IC50 is below 100 nM. Regarding `CNc1ncnc(Nc2[nH]c3c(-c4ccccc4)c(-c4ccccc4)nn3c(=O)c2-c2ccc(OC)cc2)n1` [Compound 135, 6-(4-methoxyphenyl)-5-((4-(methylamino)-1,3,5-triazin-2-yl)amino)-2,3-diphenylpyrazolo[1,5-a]pyrimidin-7(4H)-one], the IC50 is below 100 nM.

For the compound `COc1ccc(-c2c(Nc3ncnc(O)n3)[nH]c3c(-c4ccccc4)c(-c4ccccc4)nn3c2=O)cc1` [Compound 136, 5-((4-hydroxy-1,3,5-triazin-2-yl)amino)-6-(4-methoxyphenyl)-2,3-diphenylpyrazolo[1,5-a]pyrimidin-7(4H)-one], the IC50 is below 100 nM. In the case of `COc1ccc(-c2c(Nc3nccs3)[nH]c3c(-c4ccccc4)c(-c4ccccc4)nn3c2=O)cc1` [Compound 137, 6-(4-methoxyphenyl)-2,3-diphenyl-5-(thiazol-2-ylamino)pyrazolo[1,5-a]pyrimidin-7(4H)-one] it was below 100 nM. `COc1ccc(-c2c(Nc3ccon3)[nH]c3c(-c4ccccc4)c(-c4ccccc4)nn3c2=O)cc1` [Compound 138, 5-(isoxazol-3-ylamino)-6-(4-methoxyphenyl)-2,3-diphenylpyrazolo[1,5-a]pyrimidin-7(4H)-one]: the IC50 was below 100 nM.

With `COc1ccc(-c2c(Nc3cnoc3)[nH]c3c(-c4ccccc4)c(-c4ccccc4)nn3c2=O)cc1` [Compound 139, 5-(isoxazol-4-ylamino)-6-(4-methoxyphenyl)-2,3-diphenylpyrazolo[1,5-a]pyrimidin-7(4H)-one], the IC50 was below 100 nM. In the case of `COc1ccc(-c2c(Nc3ccno3)[nH]c3c(-c4ccccc4)c(-c4ccccc4)nn3c2=O)cc1` [Compound 140, 5-(isoxazol-5-ylamino)-6-(4-methoxyphenyl)-2,3-diphenylpyrazolo[1,5-a]pyrimidin-7(4H)-one], the IC50 was below 100 nM. Turning to `COc1ccc(-c2c(Nc3nccn3C)[nH]c3c(-c4ccccc4)c(-c4ccccc4)nn3c2=O)cc1` [Compound 141, 6-(4-methoxyphenyl)-5-(1-methyl-1H-imidazol-2-ylamino)-2,3-diphenylpyrazolo[1,5-a]pyrimidin-7(4H)-one], the IC50 is below 100 nM. Turning to `COc1ccc(-c2c(Nc3ncc[nH]3)[nH]c3c(-c4ccccc4)c(-c4ccccc4)nn3c2=O)cc1` [Compound 142, 5-((1H-imidazol-2-yl)amino)-6-(4-methoxyphenyl)-2,3-diphenylpyrazolo[1,5-a]pyrimidin-7(4H)-one], the IC50 is below 100 nM. In the case of `COc1ccc(-c2c(NC3=NCCS3)[nH]c3c(-c4ccccc4)c(-c4ccccc4)nn3c2=O)cc1` [Compound 143, 5-((4,5-dihydrothiazol-2-yl)amino)-6-(4-methoxyphenyl)-2,3-diphenylpyrazolo[1,5-a]pyrimidin-7(4H)-one], the IC50 was below 100 nM. `COc1ccc(-c2c(Nc3nncs3)[nH]c3c(-c4ccccc4)c(-c4ccccc4)nn3c2=O)cc1` [Compound 144, 5-((1,3,4-thiadiazol-2-yl)amino)-6-(4-methoxyphenyl)-2,3-diphenylpyrazolo[1,5-a]pyrimidin-7(4H)-one]: the IC50 was below 100 nM. With `COc1ccc(-c2c(Nc3nnc(N)s3)[nH]c3c(-c4ccccc4)c(-c4ccccc4)nn3c2=O)cc1` [Compound 145, 5-((5-amino-1,3,4-thiadiazol-2-yl)amino)-6-(4-methoxyphenyl)-2,3-diphenylpyrazolo[1,5-a]pyrimidin-7(4H)-one], the IC50 was below 100 nM. Take `COc1ccc(-c2c(Nc3nnc(O)s3)[nH]c3c(-c4ccccc4)c(-c4ccccc4)nn3c2=O)cc1` [Compound 146, 5-((5-hydroxy-1,3,4-thiadiazol-2-yl)amino)-6-(4-methoxyphenyl)-2,3-diphenylpyrazolo[1,5-a]pyrimidin-7(4H)-one]: the IC50 was below 100 nM.

The values above are taken from patent US10800782B2, “Inhibitors of cellular metabolic processes” (Agios Pharmaceuticals, Inc., priority 2016, dated 2020).
